According to patent US20060269924A1, “Modulation of telomere-initiated cell signaling” (TRUSTEES OF BOSTON UNIVERSITY, priority 2003, published 2006):
{P} = phosphate

Key:
[1] = test system: R2F (p53DD/cdk4^R24C) fibroblasts; assay: SA-β-Gal staining, p53DD/cdk4^R24C R2F fibroblasts; type: cell-based, human; details: R2F fibroblasts expressing both p53DD and cdk4^R24C, 40 μM, 1 week
Procedure: FIG. 12a: Immunoblot analysis of p53DD and cdk4^R24C expression. Cells were collected for protein analysis by western blot using 30 μg total protein and probed for total p53 and cdk4. Lanes 1, 2, 3 and 4 contain protein samples from R2F, R2F (p53DD), R2F (cdk4^R24C) and R2F (p53DD/cdk4^R24C) fibroblasts, respective. β-actin was used as a loading control. FIG. 12b: Contribution of p53 and pRb pathways to T-oligo-induced SA-β-Gal activity. R2F fibroblasts and derived transductants were treated with diluent or 40 μM T-oligo for one week and then assayed for SA-β-Gal activity. FIG. 12c: Quantitative analysis of SA-β-Gal positive cells. Cells expressing SA-β-Gal activity were counted and presented as percentage of total cells in the cultures. Averages and standard deviations were calculated from 3 representative fields from each of 3 independent experiments.
R2F newborn dermal fibroblasts and derived p53DD, […] and p53DD/cdk4^R24C transductants (a generous gift from Dr. James G. Rheinwald of Harvard Medical School) lack a functional p53 pathway, pRb pathway, and both pathways respectively.
Cells were treated once with diluent alone, 40 μM T-oligo or 40 μM complementary oligo for 1 week without re-feeding. […]
Cells were treated with either diluent or 40 μM T-oligo for 1 week and then assessed for SA-β-Gal activity. […]

[2] = test system: pRb phosphorylation on serine 780, serine 795 and serine 807/811; assay: Western blot of pRb phosphorylation in HT-1080 cells; type: cell-based, human
Procedure: FIG. 13a: Exposure to T-oligo increases SA-β-Gal activity. HT-1080 cells were treated for 4 days with diluent alone or 40 μM T-oligo or the complementary control oligo, then stained and assayed for SA-β-Gal activity. FIG. 13b: Quantitative analysis of SA-β-Gal positive cells. Cells expressing SA-β-Gal activity were counted and presented as percentage of total cells in the cultures. Averages and standard deviations were calculated from 3 representative fields from each of 3 independent experiments. FIG. 13c: Effect of T-oligo on cell proliferation. Cells were treated for 4 days as in FIG. 12 and assayed for DNA synthesis by BrdU incorporation. FIG. 13d: Quantitative analysis of BrdU incorporation. Dark black nuclei indicate BrdU incorporated into nuclear DNA. BrdU positive cells were calculated and presented as percentage of total cells in the cultures. Averages and standard deviations were calculated from 3 representative fields from each of 3 independent experiments. FIG. 13e: Effect of T-oligo on pRb phosphorylation. Cells were treated as in FIG. 13a and were then collected for protein analysis by western blot using 30 μg total protein and probed for pRb-ser780*, ser795* and ser807/811* (pRb phosphorylated at serine 780, serine 795 and serine 807/811 respectively). […]

**Q.** How did the SA-β-Gal positive cells [1] turn out when “pGTTAGGGTTAG (DNA, 5' {P}, backbone not given here; listed as Homo sapiens) [Oligonucleotide 11mer-1]” was run?
**A.** 7±1%

**Q.** And the “state of pRb proteins after removal of oligo” value ([2]; HT-1080, 4 days 40 μM, then fresh medium without oligonucleotide)?
**A.** sustained in an active, inhibitory state

**Q.** What about the “pRb phosphorylation on serine 780, serine 795 and serine 807/811” value ([2]; HT-1080 cells, 40 μM, 4 days) of the same substance?
**A.** striking and selective reduction
